In patent publication US11760784B2, “Compositions comprising PEDF-derived short peptides and uses thereof” (BRIM Biotechnology, Inc., priority 2016, dated 2023):

Legend:
[1] = system: MCP-1 mRNA; experiment: Ocular MCP-1 mRNA by quantitative real-time PCR in CEC dry eye mice; format: in vivo, C57BL6 mice; conditions: CEC 14 days, then topical PDSP for 5 days
Experimental: Dry eye is associated with abnormalities in the pre-corneal tear film and subsequent inflammatory changes in the entire ocular surface including the adnexa, conjunctiva and cornea. (see, Hessen et al., “Dry eye: An Inflammatory Ocular Disease,” J. Ophthalmic Vis. Res., 2014, 9(2): 240-250). Therefore, the effects of PDSPs in corneal inflammatory responses were next examined. Briefly, C57BL6 mice were housed in CEC for 14 days (Day 0) and then treatment with PDSP or vehicle were performed for additional 5 days (Day 5). Then, mRNA levels for inflammatory factors were evaluated by quantitative real-time PCR.
The total RNA was extracted from cells using TRIzol (Invitrogen) and treated with RNase free DNase I (Qiagen, Santa Clarita, CA) to remove genomic DNA and then purified with an RNA purification kit (Dynabeads; Invitrogen). […] Quantitative real-time PCR was performed in a GeneAmp 7700 sequence detection system (Applied Biosystems, Foster City, CA). […] All determinations were measured in triplicate. The cycle threshold (Ct) values corresponded to the PCR cycle number at which fluorescence emission in real time reaches a threshold above the base-line emission were analyzed using GeneAmp 7700 SDS software. The Ct value of the PCR product of interest and a control mRNA (GAPDH) were then used to calculate relative quantities of mRNA between samples.

[2] = system: desiccating stress-induced dry eye; experiment: Corneal fluorescein staining in desiccating stress-induced dry eye (CEC) mice; format: in vivo, C57BL/6 mice; conditions: CEC 14 days, then peptide for 3 days (FIG. 11)
[3] = system: 4-HNE; experiment: 4-HNE immunohistochemistry (lipid peroxidation) in cornea and conjunctiva of CEC mice; format: in vivo; conditions: PDSP from beginning of 14 days in CEC
Excerpt: For this test, mice were housed in CEC for 14 days and the PDSP treatment started at the beginning of housing in CEC. Then, the production of oxidative stress products (e.g., 4-hydroxy-2-nonenal, 4-HNE) was examined. 4-HNE was found throughout animal tissues, and in higher quantities during oxidative stress due to the increase in the lipid peroxidation. 4-HNE contains a reactive aldehyde, which may modify proteins. The 4-HNE-modified proteins may be detected with antibodies specific for the 4-HNE moiety.
Oxidative stress-induced lipid peroxidation was assessed by immunohistochemical detection of 4-hydroxy-2-nonenal (4HNE) in the cornea and conjunctiva. Formalin-fixed, paraffin-embedded eye specimens were deparaffinized in xylene and rehydrated in a graded series of ethanol concentrations. Slides were blocked with 10% goat serum for 60 min and then incubated with primary antibody against 4-HNE (1:100 dilution) (ab46545, Abcam) 4 hours at room temperature. The slides were subsequently incubated with the appropriate peroxidase-labeled goat immunoglobulin (1:500 dilution; Chemicon, Temecula, Calif.) for 20 min and then incubated with chromogen substrate (3,3′-diaminobenzidine) for 2 min before counterstaining with hematoxylin.

[4] = system: desiccating stress-induced dry eye; experiment: Corneal fluorescein staining in desiccating stress-induced dry eye (CEC) mice; format: in vivo, C57BL/6 mice
Experimental: In an animal model for dry eye diseases, mice were placed in a controlled environment chamber (CEC) to induce dry eyes as previously described (Barabino et al., 2005). Mice placed in the CEC were exposed to a relative humidity (RH)<25%, temperature of 20 to 22° C., with an airflow of 15 L/min, 12 hours per day. Non-Stressed mice were kept in a normal environment (RH >50%, no air flow, temperature of 21-23° C.) for the same duration. After 14 days, non-stressed mice were treated with vehicle, while the stressed mice were treated with either a test peptide (e.g., the 29mer PDSP) or vehicle solution (Vehicle group) for 5 days. Then, the cornea was examined with fluorescein staining.
Seven to 8-week-old female C57BL/6 mice were used for these experiments. Experimental procedures were approved by the Mackay Memorial Hospital Review Board and conducted according to the ARVO Statement for the Use of Animals in Ophthalmic and Vision Research.
Dry eye was induced by placing mice in a controlled environment chamber (CEC) as previously described (Barabino et al., 2005). Briefly, mice placed in the CEC were exposed to a relative humidity (RH)<25%, temperature of 20 to 22° C., and airflow of 15 L/min, 12 hours per day. Non-stressed (NS) mice without stress-induced dry eye were kept in a normal environment (RH >50%, no air flow, temperature of 21-23° C.) for the same duration. Corneal fluorescein staining and
Animals were anesthetized by an intraperitoneal injection of a mixture of zoletil (6 mg/kg) and xylazine (3 mg/kg). Corneal epithelial injury was determined by staining with topical fluorescein (Fluor-I-Strip, Ayerst Laboratories, Philadelphia, Pa.). Corneal fluorescein staining was examined with a slit-lamp biomicroscope under cobalt blue light and photographed with a digital camera. Dye staining of the cornea was scored in a manner as follows: score 0 for no punctuate staining; score 1 when less than one third of the cornea was stained; score 2 when two thirds or less was stained; and score 3 when more than two thirds was stained (Horwath-Winter J 2013).
To determine whether PDSP have therapeutic effects in a desiccating stress (DS)-induced ocular surface defects, mice were housed at controlled environment chamber (CEC) for 14 days to create ocular surface disruption. After 14 days in CEC, we used mice with fluorescence scores that are above 2 for the first experiments (FIG. 1A). Subsequently, dry eyes were treated topically with PDSP at 25-200 μM (3 times/day) or PDSP vehicle (1% CMC in BSS) for another 5 days while maintaining the same desiccating stress protocol.
To investigate whether the PDSP can suppress DS-induced corneal epithelial disruption, we applied the 14-day desiccating stress protocol to mice, and treated these mice topically with PDSP 3 times a day.

## PDSP: 29mer, residues 93-121 of human PEDF: SLGAEQRTESIIHRALYYDLISSPDIHGT (SEQ ID NO:4) (listed as Homo sapiens)
[1]
  repression of ocular MCP-1 mRNA expression compared to vehicle-treated group: 1.7 fold
[2]
  corneal damage by corneal fluorescein staining, human vs mouse 29mer: protection from corneal surface damages
[2]; listed as human PDSP
  corneal damage by corneal fluorescein staining, human vs mouse 29mer: capable of restore the ocular surface damages
[3]; versus vehicle
  4-HNE signal in the conjunctiva: 4-HNE signal was clearly stronger in vehicle-treated eyes than in eyes subjected to the PDSP treatment
[3]; NS 1.9±0.6, vehicle 20.1±1.4
  number of cells positively stained for 4-HNE in corneal epithelia: 5.3±1.0
[4]; preventive: 100 μM PDSP topically 3 times a day from beginning of 14 days in CEC, vehicle 1.7±0.3
  corneal fluorescein staining score (0 to 3): 0.7±0.2
[4]; therapeutic: CEC 14 days to induce dry eye, then peptide on the eyes for 5 days
  corneal surface damage by fluorescein staining: essentially gone
